Read-outs that look alike come from different tables or passages of the source.
Key:
[1] = system: CD34+ stem and progenitor cells from AML patients; test: Patient-derived xenograft (PDX) model of AML in NRG-3GS mice; type: in vivo; settings: 50 mg/kg QD each agent, oral gavage, 4 weeks, compared to healthy non-leukemic mice
From the text: The relative effectiveness of Compound A and the combination of Compound A and ABT-199 in targeting primitive leukemic cells and/or to prevent leukemia development were investigated in in vivo assays. First, highly purified CD34+ stem and progenitor cells from two different AML patients (with high Axl and GAS6 expression; cohort 1=AML patient #2, cohort 2=AML patient #14, as determined in Example 2) were transduced with a GFP/Luciferase lentivirus reporter to allow non-invasive in vivo imaging (IVIS) of the mice to track leukemia development. […]
Leukemic cell burden was also measured in peripheral blood (PB), bone marrow (BM) and spleens in one set of euthanized mice (one mouse from each treatment group in both cohorts, respectively) and immunophenotypes of engrafted cells determined with fluorescently-labelled CD45, CD34, CD38, CD33, CD15, CD14, CD19 surface markers. Splenomegaly was assessed by spleen sizes and weights (FIG. 5).
All remaining mice were monitored for symptoms of disease development (weight loss, lethargy etc.) and survival between treatment groups compared. […] P-values were calculated with the Log-rank (Mantel-Cox) test and significant differences between groups are indicated.

Molm-13 AML cell line = test: Compound dose response assay (trypan blue % viability) and CompuSyn combination analysis, Molm-13; type: cell-based; settings: Homo sapiens
Experimental: (§1) The AML cell lines Molm-13 and MV4-11 were obtained from DSMZ. The cells were maintained in culture using RPMI-1640 containing 10% heat-inactivated serum at 37° C./5% CO2. For all experiments, unless otherwise specified, the above-mentioned culture conditions were used. The BCL-2 inhibitors venetoclax (ABT-199) and navitoclax (ABT-263) were purchased from Chemietek. The Axl inhibitor 3-(5-(cyclopropylmethyl)-1,3,4-oxadiazol-2-yl)-5-(1-(piperidin-4-yl)-1H-pyrazol-4-yl)pyridin-2-amine (Compound A) was synthesized according to the method disclosed in WO2015/081257.
(§2) The AML cells Molm-13 and MV4-11 were plated at 5×10^4 cells/mL in 24-well plates and dosed the following day using single or combination of drugs with vehicle (DMSO) only controls. Each cell treatment was conducted in duplicates. Cells were collected 48- or 72-hours post drug treatment, mixed 1:1 with trypan blue and counted manually using a hemocytometer. A total of 100 cells (at the least) were counted for each sample. The % viability was calculated and normalized to vehicle treated controls. Individual IC50 of each compound was determined in each cell line using increasing doses. Four doses less than the IC50 for each compound for each cell line were chosen to conduct the combination studies. The IC50 values were calculated using Prism Version 5.01. CompuSyn software Version 1.0 was used to calculate the combination indices.
(§3) The fraction affected (FA) at the same dose was much higher for the compound combination groups compared to that of the single compound groups.

MV4-11 cells = test: MV4-11 cell line xenograft model of AML in NRG mice; type: in vivo; settings: MV4-11 xenograft, 50 mg/kg QD each agent, oral; for bioluminescent signal (IVIS) / leukemia progression: 3 weeks (15 doses)
Experimental: To investigate the safety and the effectiveness of Compound A monotherapy and combination therapy with ABT-199 for eliminating human leukemic cells in animals, a cell-line based xenograft mouse study was performed. First, MV4-11 cells were transduced with a GFP/Luciferase lentivirus vector to allow sorting/analyzing of human leukemic cells in mice and the non-invasive in vivo imaging system (IVIS) of the mice to track leukemia development and leukemia forming sites. Then, 2.5 million of GFP positive MV4-11 cells per mouse were injected intravenously into irradiated male NRG mice. Two weeks after injection, IVIS imaging was performed to confirm leukemia formation and consistent levels of leukemia burden in each mouse. Following that, mice received 3 weeks (total of 15 doses) of oral treatment with vehicle (control), 50 mg/kg Compound A alone QD, 50 mg/kg ABT-199 alone QD or a combination of Compound A (50 mg/kg, QD) and ABT-199 (50 mg/kg, QD).
After the treatment period, another round of IVIS imaging was performed to evaluate the effectiveness of the treatments. FIG. 8A and FIG. 8B show the bioluminescent imaging of representative mice before treatment and after oral gavages with indicated treatments, respectively. Darkened areas represent sites of observed bioluminescence resultant from presence of GFP/Luciferase leukemic cells. For comparison, healthy mice with no transduced leukemic cells (“no cells”) are also shown.
A representative group of mice was then sacrificed to compare engraftment of leukemic cells in peripheral blood (PB), bone marrow (BM), spleens and livers of each treatment group. Infiltration of leukemic cells into hematopoietic organs as spleen and liver was assessed by weights and histopathologic analysis. FIGS. 9A and 9B show spleen sizes and weights, and Haemotoxylin and Eosin staining of representative mice from each treatment group as indicated, respectively.
The remaining mice were monitored for survival between treatment groups. […] Median survival for each treatment group is indicated in days in brackets. P-values were calculated with the Log-rank (Mantel-Cox) test and significant differences between groups are indicated.

MV4-11 AML cell line = test: Compound dose response assay (trypan blue % viability) and CompuSyn combination analysis, MV4-11; type: cell-based; settings: Homo sapiens
Experimental: as §1, §2, §3

[2] = BCL-2 inhibitor + Cmpd A, read-out: IC50 (nM) of BCL-2 inhibitor in the presence of Compound A
[3] = single agent, % viability normalized to vehicle, 48 or 72 hours post treatment, read-out: IC50 (nM), single agent

Row | IC50 (Molm-13 AML cell line; [2]) [nM] | IC50 (MV4-11 AML cell line; [2]) [nM] | Compound | splenomegaly (spleen sizes and weights) [1] | IC50 (Molm-13 AML cell line; [3]) [nM] | spleen enlargement (spleen sizes and weights) (MV4-11 cells; 3 weeks) | bioluminescent signal (IVIS) / leukemia progression (MV4-11 cells) | IC50 (MV4-11 AML cell line; [3]) [nM] | leukemia propagating activity in vivo (MV4-11 cells; 3 weeks)
1 | 9.9 | 0.99 | CC1(C)CCC(CN2CCN(c3ccc(C(=O)NS(=O)(=O)c4ccc(NCC5CCOCC5)c([N+](=O)[O-])c4)c(Oc4cnc5[nH]ccc5c4)c3)CC2)=C(c2ccc(Cl)cc2)C1 [ABT-199, Venetoclax] | significantly enlarged | 55.9 | increased size and weight in the spleens | aggressive leukemia progression | 20.5 | –
2 | 116 | 36.8 | CC1(C)CCC(c2ccc(Cl)cc2)=C(CN2CCN(c3ccc(C(=O)NS(=O)(=O)c4ccc(N[C@H](CCN5CCOCC5)CSc5ccccc5)c(S(=O)(=O)C(F)(F)F)c4)cc3)CC2)C1 [ABT-263, Navitoclax] | – | 358 | – | – | 93.5 | –
3 | – | – | Nc1ncc(-c2cnn(C3CCNCC3)c2)cc1-c1nnc(CC2CC2)o1 [Compound A, 3-(5-(cyclopropylmethyl)-1,3,4-oxadiazol-2-yl)-5-(1-(piperidin-4-yl)-1H-pyrazol-4-yl)pyridin-2-amine] | significantly enlarged | 430 | no sign of spleen enlargement | dramatically lower intensity bioluminescent signals compared to vehicle and ABT-199 treated mice | 421 | can reduce leukemia propagating activity in vivo
